Test [1] has as its target T1, B2 bradykinin receptor (Cavia porcellus, UniProt O70526).
T1 sequence (O70526 whole entry): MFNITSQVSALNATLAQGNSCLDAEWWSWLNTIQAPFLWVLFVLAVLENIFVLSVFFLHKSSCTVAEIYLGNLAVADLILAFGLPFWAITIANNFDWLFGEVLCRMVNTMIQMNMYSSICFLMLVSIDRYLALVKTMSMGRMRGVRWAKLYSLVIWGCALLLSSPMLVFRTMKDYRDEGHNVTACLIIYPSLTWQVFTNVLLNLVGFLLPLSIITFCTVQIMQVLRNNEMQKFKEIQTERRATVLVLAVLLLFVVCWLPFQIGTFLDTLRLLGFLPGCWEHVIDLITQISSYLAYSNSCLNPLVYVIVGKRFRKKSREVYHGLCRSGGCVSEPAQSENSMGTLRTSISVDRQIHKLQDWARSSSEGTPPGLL
As to the kind of experiment: Inhibition of BK-induced (4x10E-8M) contraction of isolated guinea pig ileum (GPI). The class given is functional, tissue-based.

The target in test [2] is T1, B2 bradykinin receptor. As to the kind of experiment: Inhibition of specific binding of [3H]BK to bradykinin B2 receptors of guinea pig ileum (GPI). The class given is tissue-based.
In test [3] the test system is B2 bradykinin receptor, Oryctolagus cuniculus. As to the kind of experiment: % Inhibition of BK-induced (4x10E-8M) contraction of rabbit jugular vein (RJV) at 10E-5 M concentration.
For test [4], the species on record is Oryctolagus cuniculus. As to the kind of experiment: Compound was tested for the efficacy in the inhibition of BK-induced (4x10E-8M) contraction of rabbit jugular vein (RJV). The class given is functional.
Test [5] is filed under the species Oryctolagus cuniculus. The test can be described thus: Compound was tested for the percent inhibition of BK-induced (4x10E-8M) contraction of rabbit jugular vein (RJV) at 10E-6 M concentration. The class given is functional.

The source of these data is ChEMBL document CHEMBL1131916, “Novel series of O-substituted 8-quinolines and 4-benzothiazoles as potent antagonists of the bradykinin B2 receptors” (Bioorg Med Chem Lett, 1999).

By EC50 is commonly meant the concentration needed to bring the measured effect to its halfway point. Read a high EC50 as a less potent agent. By IC50 is commonly meant the point on the concentration scale where inhibition reaches its midpoint. Read a high IC50 as a need for much substance. Usually Ki stands for the dissociation constant of the complex between target and ligand, obtained from inhibition or displacement. Low values mean higher affinity, high ones lower affinity. Usually inhibition stands for the relative decrease from the control value, in per cent. A lower inhibition goes with a weak effect. As to `COc1cccc(/C=C/C(=O)NCC(=O)N(C)c2ccc(Cl)c(COc3cccc4ccc(C)nc34)c2C#N)c1`, at B2 bradykinin receptor [1], the EC50 came out at 4.1 nM. For the same compound, on B2 bradykinin receptor [2], the IC50 is 0.7 nM and the Ki worked out at 0.1 nM. The inhibition in test [3] turned out to be 78%.

As to `COc1ccc(N(C)C(=O)CNC(=O)/C=C/c2cccc(C)c2)c(OC)c1COc1cccc2ccc(C)nc12`, at B2 bradykinin receptor [2], the IC50 is 81.3 nM and the Ki turned out to be 9.2 nM. Besides, in test [3], the inhibition came out at 68%.

Compound `COc1ccc(N(C)C(=O)CNC(=O)/C=C/c2ccc(NC(C)=O)nc2)c(SC)c1COc1cccc2ccc(C)nc12` returned a concentration for a half-maximal effect (EC50) on B2 bradykinin receptor [1] of 59 nM. Also, on B2 bradykinin receptor [2], the IC50 amounted to 5.2 nM and affinity was put at a Ki of 0.6 nM. The compound further showed an inhibition in test [3] of 95%.

Turning to `Cc1ccc2cccc(OCc3c(C)ccc(N(C)C(=O)CNC(=O)/C=C/c4ccc(C(F)(F)F)cc4)c3C)c2n1`, at B2 bradykinin receptor [2], the IC50 worked out at 11.8 nM and the affinity corresponds to a Ki of 1.3 nM. In test [3], the inhibition stood at 81%.

`COC(=O)CCCCC(=O)NCC(=O)N(C)c1ccc(OC)c(COc2cccc3ccc(C)nc23)c1SC` returned an EC50 on B2 bradykinin receptor [1] of 480 nM. The compound also registered an IC50 on B2 bradykinin receptor [2] of 47.2 nM. This compound also registered an inhibition in test [3] of 55%.

For the compound `Cc1nc2c(OCc3c(Cl)ccc(N(C)C(=O)CNC(=O)/C=C/c4ccc(C(F)(F)F)cc4)c3Cl)cccc2s1`, the EC50 came to 100 nM at B2 bradykinin receptor [1] and 76 nM in the test filed under Oryctolagus cuniculus [4]. On B2 bradykinin receptor [2], this compound came in with an IC50 of 23 nM. This compound gave a Ki at B2 bradykinin receptor [2] of 2.8 nM.

Regarding `CCNC(=O)NCC(=O)N(C)c1ccc(OC)c(COc2cccc3ccc(C)nc23)c1C#N`, the response at B2 bradykinin receptor [1] was half-maximal at 450 nM (EC50). The IC50 at B2 bradykinin receptor [2] turned out to be 53.8 nM. This compound also came in with an inhibition in test [3] of 59%.

`Cc1ccc2cccc(OCc3c(Cl)ccc(N(C)C(=O)CNC(=O)NCCCC(=O)O)c3C#N)c2n1` registered an EC50 at B2 bradykinin receptor [1] of 400 nM. On B2 bradykinin receptor [2], the IC50 was 25.7 nM and the Ki was found to be 2.9 nM.

`CCNC(=O)NCC(=O)N(C)c1ccc(Cl)c(COc2cccc3ccc(C)nc23)c1C#N` registered an EC50 at B2 bradykinin receptor [1] of 290 nM. Moreover, on B2 bradykinin receptor [2], the IC50 came out at 64.8 nM.

For `COc1cccc(/C=C/C(=O)NCC(=O)N(C)c2ccc(Cl)c(COc3cccc4sc(C)nc34)c2Cl)c1`, the EC50 on B2 bradykinin receptor [1] worked out at 54 nM; in the test filed under Oryctolagus cuniculus [4] it was 180 nM. The IC50 on B2 bradykinin receptor [2] was 10.3 nM. For the same compound, on B2 bradykinin receptor [2], the Ki came to 1.3 nM.

As for `Cc1ccc2cccc(OCc3c(Cl)ccc(N(C)C(=O)CNC(=O)/C=C/c4ccc(C(F)(F)F)cc4)c3C#N)c2n1`, the response on B2 bradykinin receptor [1] was half-maximal at 56 nM (EC50). In addition, at B2 bradykinin receptor [2], the IC50 amounted to 1.2 nM and the affinity corresponds to a Ki of 0.3 nM. Also, the inhibition in test [3] is 82%.

On B2 bradykinin receptor [2], `Cc1nc2c(OCc3c(Cl)ccc(N(C)C(=O)CNC(=O)/C=C/c4ccco4)c3Cl)cccc2s1` had an IC50 of 29.8 nM and a Ki of 3.4 nM.

Take `COc1c(N(C)C(=O)CNC(=O)/C=C/c2ccc(C(F)(F)F)cc2)ccc(Cl)c1COc1cccc2ccc(C)nc12`: the figures for the concentration for a half-maximal effect (EC50) on B2 bradykinin receptor [1] and in the test listed under Oryctolagus cuniculus [4] were 55 nM and 28 nM, respectively. At B2 bradykinin receptor [2], this compound registered an IC50 of 21.9 nM. For the same compound, the Ki on B2 bradykinin receptor [2] came out at 2.5 nM.

Regarding `COc1ccc(/C=C/C(=O)NCC(=O)N(C)c2ccc(SC)c(COc3cccc4ccc(C)nc34)c2SC)cc1`, the midpoint of the response on B2 bradykinin receptor [1], the EC50, lay at 660 nM. This compound displayed an EC50 in the test listed under Oryctolagus cuniculus [4] of 8700 nM. At B2 bradykinin receptor [2], this compound yielded an IC50 of 56.9 nM and a Ki of 6.3 nM.

Regarding `CCCOc1c(N(C)C(=O)CNC(=O)/C=C/c2ccc(C(F)(F)F)cc2)ccc(OC)c1COc1cccc2ccc(C)nc12`, the EC50 at B2 bradykinin receptor [1] is 220 nM. On B2 bradykinin receptor [2], this compound came in with an IC50 of 32.9 nM and a Ki of 3.9 nM. Also, the inhibition in test [3] amounted to 82%.

`Cc1ccc(/C=C/C(=O)NCC(=O)N(C)c2ccc(Cl)c(COc3cccc4sc(-c5ccccc5)nc34)c2Cl)cc1` returned an EC50 on B2 bradykinin receptor [1] of 20000 nM. In addition, on B2 bradykinin receptor [2], the half-maximal inhibitory concentration (IC50) was 11000 nM and the Ki is 1300 nM. Besides, in test [3], the inhibition is 15%.

`Cc1ccc(/C=C/C(=O)NCC(=O)N(C)c2ccc(Cl)c(COc3cccc4sc(C)nc34)c2Cl)cc1` had an EC50 on B2 bradykinin receptor [1] of 23 nM. The compound further registered an EC50 in the test listed under Oryctolagus cuniculus [4] of 66 nM. For the same compound, at B2 bradykinin receptor [2], the IC50 amounted to 14.2 nM and the affinity corresponds to a Ki of 1.8 nM.

For `Cc1ccc(/C=C/C(=O)NCC(=O)N(C)c2ccc(Cl)c(COc3cccc4scnc34)c2Cl)cc1`, the midpoint of the response on B2 bradykinin receptor [1], the EC50, lay at 1300 nM. At B2 bradykinin receptor [2], this compound gave a half-inhibitory concentration (IC50) of 1350 nM and a Ki of 160 nM. In test [3], this compound displayed an inhibition of 17%.

`COc1ccc(N(C)C(=O)CNC(=O)/C=C/c2ccc(C(F)(F)F)cc2)c(Cl)c1COc1cccc2ccc(C)nc12`: the EC50 was 130 nM at B2 bradykinin receptor [1] and 260 nM in the test listed under Oryctolagus cuniculus [4]. For the same compound, the concentration for half-maximal inhibition (IC50) on B2 bradykinin receptor [2] amounted to 11.5 nM. Further, the Ki at B2 bradykinin receptor [2] amounted to 1.3 nM.

Consider `Cc1ccc2cccc(OCc3c(Cl)ccc(N(C)C(=O)CNC(=O)NCCCCN)c3C#N)c2n1`, for which, at B2 bradykinin receptor [1], the EC50 worked out at 350 nM. On B2 bradykinin receptor [2], this compound returned an IC50 of 0.9 nM.

On B2 bradykinin receptor [2], `Cc1nc2c(OCc3c(Cl)ccc(N(C)C(=O)CNC(=O)OCc4ccccc4)c3Cl)cccc2s1` gave an IC50 of 77.8 nM and a Ki of 9.1 nM.

`C=C/C=C/C(=O)NCC(=O)N(C)c1ccc(Cl)c(COc2cccc3sc(C)nc23)c1Cl` had an EC50 on B2 bradykinin receptor [1] of 260 nM. For the same compound, the EC50 in the test filed under Oryctolagus cuniculus [4] worked out at 5200 nM. At B2 bradykinin receptor [2], the IC50 was determined as 26.2 nM and the Ki worked out at 3.1 nM.

As a reminder, the Inhibition is how much of the control response was suppressed. Lower therefore signals a weak effect. `COc1c(N(C)C(=O)CNC(=O)/C=C/c2ccc(C(F)(F)F)cc2)ccc(SC)c1COc1cccc2ccc(C)nc12` showed an EC50 at B2 bradykinin receptor [1] of 1100 nM. This compound yielded an Inhibition in the test filed under Oryctolagus cuniculus [5] of 41%. At B2 bradykinin receptor [2], this compound showed a half-maximal inhibitory concentration (IC50) of 393 nM and a Ki of 45.4 nM.
